Among the test systems are KM12; SNB-19; HOP-62; OVCAR-5; SK-OV-3; DU-145; MOLT-4; SK-MEL-2; MDA-N; TK-10; A549; OVCAR-4; OVCAR-8; MDA-MB-231; EKVX; SW-620; MCF7; T47D; SK-MEL-28; UACC-257.
Common to all, as to experiment: inhibition of tumour cell growth, NCI panel, 48 h

Structures are written as SMILES.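 Results reflect a 48-hour exposure of cells in 96-well plates to compound at five concentrations. The concentration for 50% growth inhibition is given as GI50.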 Activity calls are given as the source filed them. Cut-off read from the data, not from the text of the source: active = GI50 up to about 1.1 µM and inactive = higher.

As to `CCCCOc1ccc(NC(=N)Nc2ccc(Cl)cc2)cc1`, the GI50 in the test on KM12 is 12.5 µM (inactive); with SNB-19, 2.74 µM (inactive); in the test with HOP-62 it was 0.235 µM (active); with OVCAR-5, 1.68 µM (inactive); in the test with SK-OV-3, 10.6 µM (inactive); in the test with DU-145, 0.462 µM (active). The GI50 with MOLT-4 was 1.42 µM (inactive); in the test on SK-MEL-2, 2.64 µM (inactive); in the test with MDA-N, 5.58 µM (inactive); in the test on TK-10 it was 5.16 µM (inactive); in the test with A549 it was 0.741 µM (active); in the test with OVCAR-4, 1.84 µM (inactive). Also, the GI50 was 11.2 µM (inactive) with OVCAR-8; 13.2 µM (inactive) in the test with MDA-MB-231; 2.37 µM (inactive) in the test with EKVX; 1.03 µM (active) in the test on SW-620; 0.135 µM (active) in the test on MCF7; 0.474 µM (active) in the test on T47D. The GI50 with SK-MEL-28 was 13.2 µM (inactive); with UACC-257 it was 0.176 µM (active).

Turning to `CC(=O)OC1CCC2(C)C(=CCC3C2CCC2(C)C3CC3OC4(CCC(C)CN4)C(C)C32)C1` (stereo not given), the GI50 in the test with KM12, with SNB-19, in the test on HOP-62, with OVCAR-5, with SK-OV-3 and with DU-145 was > 100 µM (inactive) in each case. Further, the GI50 in the test on MOLT-4, in the test on SK-MEL-2, in the test on MDA-N, in the test with TK-10, with A549 and in the test on OVCAR-4 was > 100 µM (inactive) throughout. In addition, the GI50 in the test with OVCAR-8, in the test with MDA-MB-231, in the test on EKVX, with SW-620, with MCF7 and in the test with T47D was > 100 µM (inactive) each time. Further, the GI50 with SK-MEL-28 and in the test on UACC-257 was > 100 µM (inactive) in each case.

Regarding `O=C(O)/C(Cc1c[nH]nn1)=N\O`, the GI50 in the test on KM12, in the test on SNB-19, with HOP-62, in the test with OVCAR-5, in the test with SK-OV-3 and in the test on DU-145 was > 100 µM (inactive) each time. Further, the GI50 with MOLT-4, in the test on SK-MEL-2, in the test with MDA-N, with TK-10, in the test with A549 and in the test with OVCAR-4 was > 100 µM (inactive) in each case. Also, the GI50 with OVCAR-8, in the test on MDA-MB-231, in the test with EKVX, in the test with SW-620, with MCF7 and in the test with T47D was > 100 µM (inactive) throughout. The GI50 with SK-MEL-28 and in the test with UACC-257 was > 100 µM (inactive) throughout.

As for `Cc1ccc(S(=O)(=O)NC(=O)NC2=NC(C)(C)N(c3ccc(Cl)c(Cl)c3)C(N)=N2)cc1`, the GI50 in the test on KM12 was 65.8 µM (inactive); in the test on SNB-19, 97.9 µM (inactive); in the test with HOP-62, 7.59 µM (inactive); with OVCAR-5 it was > 100 µM (inactive); with SK-OV-3 it was > 100 µM (inactive); with DU-145, 64.4 µM (inactive). The GI50 was 7.43 µM (inactive) in the test with MOLT-4; > 100 µM (inactive) in the test with SK-MEL-2; 5.04 µM (inactive) with MDA-N; 84.7 µM (inactive) in the test on TK-10; 2.92 µM (inactive) with A549; > 100 µM (inactive) in the test with OVCAR-4. Also, the GI50 was 9.89 µM (inactive) with OVCAR-8; 7.98 µM (inactive) with MDA-MB-231; > 100 µM (inactive) in the test on EKVX; 4.66 µM (inactive) in the test on SW-620; 25.8 µM (inactive) in the test on MCF7; 10.4 µM (inactive) in the test on T47D. Further, the GI50 is > 100 µM (inactive) in the test on SK-MEL-28 and 36 µM (inactive) in the test on UACC-257.

Take `c1ccc(COc2ccc(C[P+](c3ccccc3)(c3ccccc3)c3ccccc3)cc2)cc1`: the GI50 was 0.191 µM (active) in the test on KM12; 0.354 µM (active) in the test on SNB-19; 0.427 µM (active) in the test on HOP-62; 0.269 µM (active) in the test on OVCAR-5; 0.287 µM (active) in the test on SK-OV-3; 0.304 µM (active) in the test with DU-145. For the same compound, the GI50 in the test with MOLT-4 is 0.285 µM (active); with SK-MEL-2, 0.109 µM (active); with MDA-N it was 0.221 µM (active); with TK-10, 0.251 µM (active); in the test on A549 it was 0.184 µM (active); with OVCAR-4 it was 0.245 µM (active). Also, the GI50 is 0.163 µM (active) with OVCAR-8; 0.776 µM (active) in the test with MDA-MB-231; 0.233 µM (active) with EKVX; 0.272 µM (active) in the test with SW-620; 0.1 µM (active) in the test with MCF7; < 0.0175 µM (active) in the test on T47D. For the same compound, the GI50 is 0.337 µM (active) in the test with SK-MEL-28 and 0.269 µM (active) with UACC-257.

As for `C=C(C)C(=O)CC[C@@H](C)[C@H]1[C@@H](OC2OC(CO)C(O)C(O)C2O)C[C@@]2(C)[C@@H]3C[C@H](O)C4C(C)(C)[C@@H](OC5OC(CO)C(O)C(O)C5O)CC[C@@]45C[C@@]35CC[C@]12C` (stereo not given in full), the GI50 in the test with KM12 was > 100 µM (inactive); with SNB-19, 48.8 µM (inactive); with HOP-62, > 100 µM (inactive); with OVCAR-5 it was > 100 µM (inactive); with SK-OV-3, > 100 µM (inactive); with DU-145, > 100 µM (inactive). Besides, the GI50 with MOLT-4 is 62.1 µM (inactive); in the test on SK-MEL-2 it was > 100 µM (inactive); in the test on MDA-N it was 24.6 µM (inactive); in the test with TK-10, > 100 µM (inactive); with A549, > 100 µM (inactive); in the test on OVCAR-4, > 100 µM (inactive). Also, the GI50 in the test with OVCAR-8, in the test on MDA-MB-231, in the test on EKVX, in the test with SW-620, with MCF7 and with T47D was > 100 µM (inactive) throughout. For the same compound, the GI50 in the test with SK-MEL-28 and in the test with UACC-257 was > 100 µM (inactive) throughout.

Consider `COc1ccc2c(c1)c(=O)c1c(NCCN(C)C)ccc3c(=O)n(CCN(C)C)c(=O)n2c31`, for which the GI50 in the test with KM12 is 0.0815 µM (active); in the test with SNB-19, 0.206 µM (active); in the test with HOP-62, 0.0711 µM (active); in the test with OVCAR-5, 0.254 µM (active); with SK-OV-3, 0.55 µM (active); in the test with DU-145, 0.0883 µM (active). For the same compound, the GI50 in the test with MOLT-4 is < 0.01 µM (active); in the test on SK-MEL-2, 0.182 µM (active); in the test with MDA-N, 0.1 µM (active); with TK-10, 0.141 µM (active); in the test on A549, 0.0367 µM (active); in the test with OVCAR-4, 0.101 µM (active). The GI50 with OVCAR-8 is 0.0601 µM (active); with MDA-MB-231, 0.191 µM (active); in the test on EKVX, 0.124 µM (active); in the test with SW-620, < 0.0105 µM (active); with MCF7, 0.0368 µM (active); in the test with T47D, 0.372 µM (active). The GI50 with SK-MEL-28 was 0.383 µM (active); with UACC-257, 0.166 µM (active).

Turning to `O=C(OCc1ccccc1)N1CCN(C(=O)OCc2ccccc2)CCN(C(=O)OCc2ccccc2)CCN(C(=O)OCc2ccccc2)CCN(C(=O)OCc2ccccc2)CC1`, the GI50 in the test on KM12 is > 100 µM (inactive); in the test on SNB-19, > 100 µM (inactive); with HOP-62 it was 65 µM (inactive); with OVCAR-5, > 100 µM (inactive); in the test on SK-OV-3 it was > 100 µM (inactive); in the test on DU-145, > 100 µM (inactive). Besides, the GI50 in the test on MOLT-4 was > 100 µM (inactive); in the test with SK-MEL-2 it was > 100 µM (inactive); with MDA-N it was > 100 µM (inactive); with TK-10, 46.6 µM (inactive); in the test with A549, > 100 µM (inactive); with OVCAR-4, 57.4 µM (inactive). The GI50 with OVCAR-8 is > 100 µM (inactive); with MDA-MB-231 it was 39.5 µM (inactive); in the test with EKVX, > 100 µM (inactive); in the test on SW-620, > 100 µM (inactive); in the test with MCF7, > 100 µM (inactive); with T47D, > 100 µM (inactive). Also, the GI50 in the test on SK-MEL-28 was > 100 µM (inactive); with UACC-257 it was 26.7 µM (inactive).

Take `O=S(=O)(O)c1cc(S(=O)(=O)O)c2c(Nc3ccnc4ccccc34)ccc(S(=O)(=O)O)c2c1`: the GI50 in the test on KM12, in the test with SNB-19, with HOP-62, in the test on OVCAR-5, in the test on SK-OV-3 and in the test with DU-145 was > 100 µM (inactive) each time. For the same compound, the GI50 in the test on MOLT-4, in the test on SK-MEL-2, in the test with MDA-N, with TK-10, in the test on A549 and with OVCAR-4 was > 100 µM (inactive) in each case. Further, the GI50 with OVCAR-8, in the test on MDA-MB-231, with EKVX, with SW-620, in the test with MCF7 and in the test on T47D was > 100 µM (inactive) throughout. The GI50 in the test on SK-MEL-28 and in the test on UACC-257 was > 100 µM (inactive) throughout.

Take `O=C(Oc1cccc(Cl)c1)c1cc2cc(CCl)ccc2oc1=O`: the GI50 in the test with KM12 was 28.6 µM (inactive); in the test with SNB-19, 36.8 µM (inactive); in the test with HOP-62, 42.9 µM (inactive); in the test on OVCAR-5, > 100 µM (inactive); in the test on SK-OV-3 it was > 100 µM (inactive); with DU-145 it was 22.8 µM (inactive). Further, the GI50 with MOLT-4 is 34.9 µM (inactive); in the test on SK-MEL-2, 12.6 µM (inactive); in the test with MDA-N, 24.5 µM (inactive); with TK-10, 32.1 µM (inactive); in the test with A549, 33 µM (inactive); in the test with OVCAR-4 it was 41.5 µM (inactive). The GI50 in the test with OVCAR-8 is > 100 µM (inactive); in the test with MDA-MB-231, > 100 µM (inactive); with EKVX, 44.4 µM (inactive); in the test on SW-620 it was > 100 µM (inactive); with MCF7 it was 30.3 µM (inactive); in the test with T47D it was 31.5 µM (inactive). The GI50 was 40 µM (inactive) in the test with SK-MEL-28 and 16.3 µM (inactive) with UACC-257.

(Values after ChEMBL document CHEMBL1201862, “PubChem BioAssay data set” (2004).)
